Assay results published in patent US20080145313A1, “Compositions and Methods for the Treatment and Prevention of Neoplastic Disorders” (Genesis Research & Development Corporation Limited, priority 2006, published 2008).

Test system: target transcript mRNA in A549 cells
Test: Level of mRNA of target transcript in A549 cells by quantitative RT-PCR (Tables 12 and 13)
Type: cell-based, human
Settings: 24 h post-transfection; for mRNA knockdown of energy and metabolism gene target transcript, 0.1 nM: 0.1 nM siRNA; for mRNA knockdown of energy and metabolism gene target transcript, 1 nM: 1 nM siRNA; for mRNA knockdown of energy and metabolism gene target transcript, 10 nM: 10 nM siRNA
Description: A549 cells were transfected as described before with 0.1, 1.0 and 10 nM siRNA as listed in Tables 10 and 11 and the relative mRNA levels quantified 24 h post-transfection. RNA was purified from cells using Trizol® extraction as per the manufacturer's protocol (Invitrogen). cDNA was prepared by digesting approximately 200 ng purified RNA with DNAse I (Invitrogen) for 15 minutes at room temperature, followed by 15 minutes at 65° C. in the presence of 25 mM EDTA. 30 ng random primers were added and incubated for 10 minutes at 65° C., 1 minute on ice; Superscript® III polymerase (Invitrogen) was added in presence of 5 nM DTT (Invitrogen) and 1 mM deoxyribonucleotides (Invitrogen), and the reaction incubated at 25° C. for 5 minutes, followed by an hour at 50° C. cDNA was diluted 1:3 in 10 mM Tris pH 7.0, and quantitative RT-PCR carried out on an ABI Prism 7900HT (Applied Biosciences, Inc., Foster City, Calif.) using FastStart TaqMan SYBRGreen (Roche, Basel, Switzerland) or Platinum SYBR Green (Invitrogen) and 360 nM of the primers specific for gene targets and housekeeping genes HPRT and Lamin. Reduction in target mRNA levels following siRNA transfection are given in Tables 12 and 13, together with the gene specific primer sequences. Primer sequences used for the housekeeping genes HPRT and Lamin are given in SEQ ID NO: 4885-4888.

“1693 (ATTTGCCAACAGGATCTTCGGCCCCATCTG; chemistry not given here) [compound 1693]” was tested, and the “mRNA knockdown of energy and metabolism gene target transcript, 0.1 nM” value (“mRNA knockdown … 0.1 nM” for short) was “− (<50% mRNA knockdown)” and the “mRNA knockdown of energy and metabolism gene target transcript, 1 nM” value was “− (<50% mRNA knockdown)”.

For “3576 (AAGCGGTTTTTCTCCAAGTACTC; chemistry not given here) [compound 3576]”, the “mRNA knockdown … 0.1 nM” value was “+++ (>90% mRNA knockdown)” and the “mRNA knockdown of energy and metabolism gene target transcript, 1 nM” value was “+++ (>90% mRNA knockdown)”.

With “3547 (CAACTACCGCGAGCTGCGCTGGTT; chemistry not given here) [compound 3547]” the “mRNA knockdown … 0.1 nM” value was “++ (70-90% mRNA knockdown)”, the “mRNA knockdown of energy and metabolism gene target transcript, 1 nM” value was “++ (70-90% mRNA knockdown)” and the “mRNA knockdown of energy and metabolism gene target transcript, 10 nM” value was “+++ (>90% mRNA knockdown)”.

“3585 (AACAGAGGAGCAAGATACAGGC; chemistry not given here) [compound 3585]” was tested, and the “mRNA knockdown … 0.1 nM” value was “++ (70-90% mRNA knockdown)” and the “mRNA knockdown of energy and metabolism gene target transcript, 1 nM” value was “++ (70-90% mRNA knockdown)”.

For “3574 (GCGGTTTTTCTCCAAGTACTC; chemistry not given here) [compound 3574]”, the “mRNA knockdown … 0.1 nM” value was “++ (70-90% mRNA knockdown)” and the “mRNA knockdown of energy and metabolism gene target transcript, 1 nM” value was “+++ (>90% mRNA knockdown)”.

In the case of “3549 (GGCAACTACCGCGAGCTGCGCTGGTT; chemistry not given here) [compound 3549]”, the “mRNA knockdown … 0.1 nM” value is reported as “+ (50-70% mRNA knockdown)”, the “mRNA knockdown of energy and metabolism gene target transcript, 1 nM” value is reported as “+++ (>90% mRNA knockdown)” and the “mRNA knockdown of energy and metabolism gene target transcript, 10 nM” value is reported as “++ (70-90% mRNA knockdown)”.

For “1695 (ACGTGAAGCTCCCTGACGCCTA; chemistry not given here) [compound 1695]”, the “mRNA knockdown … 0.1 nM” value was “++ (70-90% mRNA knockdown)” and the “mRNA knockdown of energy and metabolism gene target transcript, 1 nM” value was “++ (70-90% mRNA knockdown)”.

For “1687 (CAACAGGATCTTCGGCCCCATCTG; chemistry not given here) [compound 1687]”, the “mRNA knockdown … 0.1 nM” value was “− (<50% mRNA knockdown)” and the “mRNA knockdown of energy and metabolism gene target transcript, 1 nM” value was “− (<50% mRNA knockdown)”.

In the case of “3554 (CGGATGTTGGGATCATTATTA; chemistry not given here) [compound 3554]”, the “mRNA knockdown … 0.1 nM” value is reported as “++ (70-90% mRNA knockdown)” and the “mRNA knockdown of energy and metabolism gene target transcript, 1 nM” value is reported as “++ (70-90% mRNA knockdown)”.

“3594 (CAGGAAGATCCTGCTCATCAG; chemistry not given here) [compound 3594]” was tested, and the “mRNA knockdown … 0.1 nM” value was “− (<50% mRNA knockdown)” and the “mRNA knockdown of energy and metabolism gene target transcript, 1 nM” value was “+ (50-70% mRNA knockdown)”.

With “3593 (TTGCCAAAAACAGAGGAGCAAGATACAGGC; chemistry not given here) [compound 3593]” the “mRNA knockdown … 0.1 nM” value was “− (<50% mRNA knockdown)” and the “mRNA knockdown of energy and metabolism gene target transcript, 1 nM” value was “+ (50-70% mRNA knockdown)”.

With “3579 (GTGAAGCGGTTTTTCTCCAAGTACTC; chemistry not given here) [compound 3579]” the “mRNA knockdown … 0.1 nM” value was “++ (70-90% mRNA knockdown)” and the “mRNA knockdown of energy and metabolism gene target transcript, 1 nM” value was “+++ (>90% mRNA knockdown)”.

“3572 (GGTCACCAGCAAGAACGGTGGGATTTACT; chemistry not given here) [compound 3572]” was tested, and the “mRNA knockdown … 0.1 nM” value was “+ (50-70% mRNA knockdown)” and the “mRNA knockdown of energy and metabolism gene target transcript, 1 nM” value was “++ (70-90% mRNA knockdown)”.

“3551 (AAGGCAACTACCGCGAGCTGCGCTGGTT; chemistry not given here) [compound 3551]” was tested, and the “mRNA knockdown … 0.1 nM” value was “++ (70-90% mRNA knockdown)” and the “mRNA knockdown of energy and metabolism gene target transcript, 1 nM” value was “− (<50% mRNA knockdown)”.

For “3597 (CAACAGGAAGATCCTGCTCATCAG; chemistry not given here) [compound 3597]”, the “mRNA knockdown … 0.1 nM” value was “+ (50-70% mRNA knockdown)” and the “mRNA knockdown of energy and metabolism gene target transcript, 1 nM” value was “++ (70-90% mRNA knockdown)”.
